The subject of experiment [1] is colony-forming cells (CFCs). The experiment can be described thus: Mobilization of colony-forming cells (CFC/CFU) to blood and spleen, colony assays. Conditions: for number of CFUs mobilized from the bone marrow to the blood and spleen: Example 7: D 60 mg/kg, E and F 20 mg/kg, + G-CSF vs vehicle + G-CSF, FIG. 13. It is filed as in vivo, C57BL/6 mice. How it is done: Mobilization of colony-forming cells (CFCs) to the blood and spleen were measured (FIG. 1B).
This was divided into two experiments in which G-CSF was administered for 2 days in one experiment and 4 days in the other (FIG. 2). […] Mobilization of CFCs, phenotypic Lin^−CD41^−Sca1^+Kit^+ HSPCs and Lin^−CD41^− Sca1^+Kit^+CD48^−CD150^+ HSCs were measured in blood and spleens.
Additional HIF-α potentiating agents in the form of PHD inhibitors were tested for their ability to enhance mobilization induced by G-CSF.
(§1) At the end of treatment, blood was harvested by cardiac puncture, mice were sacrificed by cervical dislocation and spleens harvested. Femurs were removed, cleaned and the bone marrow was flushed with 1 mL PBS+10% newborn calf serum (NCS).
The number of phenotypic hematopoietic stem and progenitor cells remaining in the bone marrow following treatment was measured by flow cytometry using antibodies specific for lineage markers (CD3, CD5, CD45R/B220, F4/80, Gr1, CD41, Ter119), Sca-1, Kit, CD48 and CD150. Similarly, the number of phenotypic hematopoietic stem cells mobilized into the blood and spleen were measured. Colony assays were also performed on blood and spleen to determine the number of colony forming cells per mL of blood and per spleen. […] Levels of significance for differences were calculated using the Student's t-test.
All procedures were approved by the animal experimentation ethics committee of the University of Queensland. […] Plerixafor (AMD3100 octohydrochloride, Tocris Bioscience, Bristol, UK) was injected intraperitoneally as a single 16 mg/kg dose corresponding to 10 mg/kg of AMD3100 base. Tissues were harvested 1 h after Plerixafor administration. […] Control mice were injected with an equivalent volume of saline. At specified time-points, mice were anesthetized with isoflurane before cardiac puncture to harvest blood. Mice were then euthanized by cervical dislocation and BM and bones harvested.
Optimal concentrations of mouse IL-3, IL-6 and soluble kit ligand were added as conditioned media from stably transfected BHK cell lines. Colonies were counted after 7 days culture at 37° C. in a humidified incubator containing 5% CO2.

The test system of experiment [2] is hematopoietic stem and progenitor cells. The experiment can be described thus: Phenotypic HSCs, HSPCs and myeloid progenitors in blood, spleen and bone marrow by flow cytometry. In kind it is in vivo, C57BL/6 mice. The note with it: for total number of HSCs and progenitors in the BM: Example 7: Compound D 60 mg/kg; for total number of HSCs and progenitors in the BM / total number of myeloid progenitors (LKS−) mobilized: E and F 20 mg/kg, + G-CSF vs vehicle + G-CSF; for total number of myeloid progenitors (LKS−) mobilized: Example 7: D 60 mg/kg. How it is done:
(§2) Additional HIF-α potentiating agents in the form of PHD inhibitors were tested for their ability to enhance mobilization induced by G-CSF. Compound A, Compound B or Compound C, were tested in male, 7 weeks-old C57BL/6 mice. Mice were injected twice daily sub-cutaneously with rhuG-CSF at a dose of 125 μg/kg per injection for four days. Mice were gavaged with 20 mg/kg Compound A, Compound B, Compound C or vehicle control once daily for three days beginning on day 1 of the experiment.
as §1
The number of phenotypic hematopoietic stem and progenitor cells remaining in the bone marrow following treatment was measured by flow cytometry using antibodies specific for lineage markers (CD3, CD5, CD45R/B220, F4/80, Gr1, CD41, Ter119), Sca-1, Kit, CD48 and CD150. Similarly, the number of phenotypic hematopoietic stem cells mobilized into the blood and spleen were measured. Colony assays were also performed on blood and spleen to determine the number of colony forming cells per mL of blood and per spleen. All results are presented as mean f standard deviation with n=6 per groups. Levels of significance for differences were calculated using the Student's t-test.
All procedures were approved by the animal experimentation ethics committee of the University of Queensland. All experiments were performed on nine to twelve-week old C57BL/6 male mice or genetically modified mice back-crossed at least 10 times into C57BL/6. Recombinant human G-CSF (Amgen, Thousand Oaks, Calif.) was injected twice daily subcutaneously at 125 μg/kg per injection for up to 4 consecutive days. Plerixafor (AMD3100 octohydrochloride, Tocris Bioscience, Bristol, UK) was injected intraperitoneally as a single 16 mg/kg dose corresponding to 10 mg/kg of AMD3100 base. Tissues were harvested 1 h after Plerixafor administration. […] Compounds H and J were administered at 60 mg/kg and Compound K was administered at 100 mg/kg. Control mice were injected with an equivalent volume of saline. At specified time-points, mice were anesthetized with isoflurane before cardiac puncture to harvest blood. Mice were then euthanized by cervical dislocation and BM and bones harvested.
Following flushing with PBS plus 2% NCS, enriched central BM cells were pelleted at 370×g for 5 minutes at 4° C. and resuspended in CD16/CD32 hybridoma 2.4G2 supernatant to block IgGFc receptors. HSCs were stained with the biotinylated lineage antibody cocktail (CD3, CD5, B220, CD11b, Gr-1, Ter119) and biotinylated CD41 together with streptavidin (SAV)-Pacific Blue, anti-Sca-1-PECY7, anti-KIT-APC, CD48-FITC and CD150-PE as previously described (17). Data were acquired on a CyAn (Dako Cytomation) flow cytometer and analyzed following compensation with single color controls using FlowJo software (Tree Star, Ashland, Oreg.).
(In flow cytometry, cells or beads pass a laser one at a time.)

The next experiment concerns white blood cells. The experiment can be described thus: White blood cell number per mL of blood after mobilization treatment. It is filed as in vivo, C57BL/6 mice. How it is done:
as §2, §1

Experiment [3] in a line: Spleen weight after mobilization treatment. In kind it is in vivo, C57BL/6 mice. As to the method:
Additional HIF-α potentiating agents in the form of PHD inhibitors were tested for their ability to enhance mobilization induced by G-CSF. Compound A, Compound B or Compound C, were tested in male, 7 weeks-old C57BL/6 mice. Mice were injected twice daily sub-cutaneously with rhuG-CSF at a dose of 125 μg/kg per injection for four days. […]
as §1

The next experiment has as its system CD34+ cells. Conditions: cited from earlier work.
Experiment [4] relates to colony-forming cells (CFCs). The note with it: Plerixafor; reference (7); cited from earlier work.
The mark [5] stands for this setting: Example 6: 20 mg/kg + G-CSF vs vehicle + G-CSF, FIGS. 8A-B.
The mark [6] stands for this setting: Example 6: blood and spleen, 20 mg/kg + G-CSF vs vehicle + G-CSF, FIGS. 9A-B.
The mark [7] stands for this setting: Example 6: 20 mg/kg + G-CSF vs vehicle + G-CSF, FIG. 11.
The mark [8] stands for this setting: Example 7: D 60 mg/kg, E 20 mg/kg, + G-CSF vs vehicle + G-CSF.
Where [9] appears, read: Example 7: D 60 mg/kg, E and F 20 mg/kg, + G-CSF vs vehicle + G-CSF.
Setting [10] is: Example 7: 20 mg/kg + G-CSF vs vehicle + G-CSF, FIGS. 12A-B.

Take `N#Cc1nc(C(=O)NCC(=O)O)c(O)c2ccn(Cc3ccccc3F)c12` [Compound C, {[7-Cyano-1-(2-fluoro-benzyl)-4-hydroxy-1H-pyrrolo[2,3-c]pyridine-5-carbonyl]-amino}-acetic acid]: in experiment [1] (Example 6: 20 mg/kg + G-CSF vs vehicle + G-CSF, FIG. 10), the “number of colony forming units mobilized to the blood” value is given as “significantly increased”. Also, the “mobilization of myeloid progenitors (LKS−) to the blood” value in experiment [2] (Example 6: 20 mg/kg + G-CSF vs vehicle + G-CSF) is listed as “did not significantly alter”. In experiment [2] (setting [5]), the “increase in mobilization of myeloid progenitors (LKS−) to the spleen” value is “approximately 3 fold”; the “increase in number of HSPCs (LSK48+ and LSK) mobilized to the spleen” value is reported as “approximately 2 fold”; the “increase in number of phenotypic HSCs (LSK48−150+) mobilized to the spleen” value is “approximately 2 fold”. In addition, the “total number of phenotypic HSPCs in the bone marrow” value in experiment [2] (Example 6: 20 mg/kg once daily 3 days + rhuG-CSF 125 μg/kg twice daily 4 days vs vehicle + G-CSF, FIGS. 6A-B) was “did not significantly alter”. In addition, in experiment [2] (setting [6]), the “increase in total number of HSPCs (LSK48+ and LSK) mobilized from the bone marrow” value is “approximately 2 fold”; the “increase in total number of myeloid progenitors (LKS−) mobilized from the bone marrow” value was “approximately 6 fold”; the “increase in total number of phenotypic HSCs (LSK48−150+) mobilized from the bone marrow” value was “approximately 2 fold”. Also, the “number of white blood cells per mL of blood” value (“number … per mL of blood” below) in the experiment with white blood cells (setting [7]) is reported as “significant increase”. Also, the “increase in spleen weight” value in experiment [3] (setting [7]) is reported as “approximately 2 fold”.

In the case of `O=C(O)CNC(=O)c1c(O)n(C2CCCCC2)c(=O)n(C2CCCCC2)c1=O` [Compound D, [(1,3-Dicyclohexyl-6-hydroxy-2,4-dioxo-1,2,3,4-tetrahydro-pyrimidine-5-carbonyl)-amino]-acetic acid], in experiment [1], the “number of CFUs mobilized from the bone marrow to the blood and spleen” value is listed as “significantly increased”. Also, the “total number of HSCs and progenitors in the BM” value in experiment [2] is listed as “did not significantly alter”. In experiment [2] (FIGS. 12A-B), the “total number of myeloid progenitors (LKS−) mobilized” value was “significantly increased”. Moreover, in the experiment with white blood cells (setting [8]), the “number … per mL of blood” value is “significant increase”. In addition, the “increase in spleen weight” value in experiment [3] (setting [9]) is given as “approximately 2 fold”.

As to `CC(C)c1nn(Cc2ccc(-c3ccc(F)cc3)cc2F)c(=O)c(C(=O)NCC(=O)O)c1O` [Compound E, {[2-(3,4′-Difluoro-biphenyl-4-ylmethyl)-5-hydroxy-6-isopropyl-3-oxo-2,3-dihydro-pyridazine-4-carbonyl]-amino}-acetic acid], the “number of CFUs mobilized from the bone marrow to the blood and spleen” value in experiment [1] was “significantly increased”. Besides, in experiment [2] (setting [10]), the “total number of HSCs (LSK48-150+) mobilized from the bone marrow” value was “significant increase”; the “total number of HSPCs (LSK48+ and LSK) mobilized from the bone marrow” value was “significant increase”. The “total number of HSCs and progenitors in the BM” value in experiment [2] is listed as “did not significantly alter”. In experiment [2] (FIGS. 12A-B), the “total number of myeloid progenitors (LKS−) mobilized” value is recorded as “significant increase”. For the same molecule, in the experiment with white blood cells (setting [8]), the “number … per mL of blood” value was “significant increase”. For the same molecule, in experiment [3] (setting [9]), the “increase in spleen weight” value is “approximately 2 fold”.

For `c1cc(CN2CCCNCCNCCCNCC2)ccc1CN1CCCNCCNCCCNCC1` [Plerixafor, 1,1′-[1,4-phenylenebis(methylene)]-bis-1,4,8,11-tetra-azacyclotetradecane], in experiment [1] (1 hr following Plerixafor treatment with or without Compound X, FIG. 1D), the “mobilization of HSPC to the spleen” value is reported as “no significant mobilization”. In addition, in experiment [1] (Plerixafor 16 mg/kg 1 hour prior harvest + 2 days G-CSF, p<0.005), the “enhancement of CFC mobilization in response to G-CSF” value was 10 fold. In the experiment on CD34+ cells (G-CSF and Plerixafor, references (8-9)), the “patients who failed with G-CSF alone who still fail to mobilize adequately” value was 40%. In the experiment on CD34+ cells (Plerixafor daily 1 hr prior to aphaeresis from day 4 of G-CSF, references (8-9)), the “patients who previously failed to mobilize with G-CSF alone who reach the minimal threshold” value was “approximately 60%”. Further, in experiment [4], the “time of peak mobilization post-injection” value is on record as 1 h.

B1: G-CSF: cytokine granulocyte colony-stimulating factor, the main mobilizing agent used in the clinic; recombinant human G-CSF (Amgen) (protein, UniProt P09919 31-207, looked up)
Granulocyte …: TPLGPASSLPQSFLLKCLEQVRKIQGDGAALQEKLVSECATYKLCHPEELVLLGHSLGIPWAPLSSCPSQALQLAGCLSQLHSGLFLYQGLLQALEGISPELGPTLDTLQLDVADFATTIWQQMEELGMAPALQPTQGAMPAFASAFQRRAGGVLVASHLQSFLEVSYRVLRHLAQP
modifications: filgrastim
As for B1, the “chemotherapy-treated patients who fail to reach the minimal threshold of 2×10^6 CD34+ cells/kg” value with CD34+ cells (autologous setting, in response to G-CSF, reference (1)) is given as 30-60%.

The values above are taken from patent US20160015786A1, “MOBILIZING AGENTS AND USES THEREFOR” (MATER MEDICAL RESEARCH INSTITUTE LIMITED, priority 2013, published 2016).
